Consider 4 molecules from patent US20240124404A1, “COMPOSITION FOR TREATING DISEASES RELATED TO ADVANCED GLYCATION END PRODUCTS COMPRISING INDOLE DERIVATIVE” (METACEN THERAPEUTICS, priority 2021, published 2024).

Like-named read-outs stand apart in the source and are kept apart here.

Assay [1] in a line: Methylglyoxal (MGO) trapping ability: free MGO concentration by HPLC. The class given is biochemical. The note with it: compound 1:1 with MGO in PBS pH 7.4, 37° C.; for MGO concentration on day 7: MGO + PBS control 436.38; for MGO concentration on day 1: MGO + PBS control 499.53. Here is the method: Specifically, a mixture was prepared by adding methylglyoxal (MGO) to phosphate buffered saline (PBS, Cat no. 10010023, pH 7.4). The compound of the present invention was added to the mixture (MGO+PBS) at a concentration of 1:1 with methylglyoxal (MGO) and reacted, and then cultured at 37° C. for 1 day.

The nature of assay [2]: Methylglyoxal (MGO) trapping ability: fluorescence intensity of reaction product. The class given is biochemical. Conditions: compound 1.0 mM in MGO+PBS pH 7.4, 37° C., 1 day; ex 355 nm / em 460 nm; 10×10^3 or more = trapping ability. Here is the method: Methylglyoxal (MGO) is a main precursor of advanced glycation end products that cause complications due to diabetes mellitus. Successful trapping of methylglyoxal (MGO) can inhibit the production of advanced glycation end products.
A mixture was prepared by adding methylglyoxal (MGO) to phosphate buffered saline (PBS, Cat no. 10010023, pH 7.4). […] The fluorescence intensity of the reaction product was measured at an excitation wavelength of 355 nm and an emission wavelength of 460 nm using a VICTOR™X3 multilabel plate reader.
The higher the fluorescence intensity measured from the reaction product, the higher the ability of the compound to trap methylglyoxal. In addition, in this experimental example, when the fluorescence intensity was 10×10^3 or more, it was determined that the compound had the ability to trap methylglyoxal.

For assay [3], the system named is SH-SY5Y cells. Description: Protection against MGO-induced cytotoxicity in SH-SY5Y cell line (MTT). The note with it: Homo sapiens.
Description: Specifically, SH-SY5Y cells were dispensed at 2×10^4 cells/well in a 96 well plate. Each cell line was pre-/post-treated with the compound of the present invention at a concentration of 500 nM or aminoguanidine (AG) at a concentration of 1 mM for 1 hour, and then pre-/post-treated with 500 μM MGO, and cultured for 24 hours. The medium was removed and then treated with 0.5 mg/ml 3-(4,5-dimethylthiazol-2-yl)-2,5-diphenyltetrazolium bromide (MTT) solution for 1 hour, and the reduced formazan was dissolved in 150 μl of DMSO, and the cell viability was measured by a microspectrophotometer at a wavelength of 570 nm.
In assay [4] the test system is N2a cells. Description: Protection against MGO-induced cytotoxicity in N2a cell line (MTT). The note with it: Mus musculus.
Description: Specifically, N2a cells were dispensed at 2×10^4 cells/well in a 96 well plate. Each cell line was pre-/post-treated with the compound of the present invention at a concentration of 500 nM or aminoguanidine (AG) at a concentration of 1 mM for 1 hour, and then pre-/post-treated with 500 μM MGO, and cultured for 24 hours. The medium was removed and then treated with 0.5 mg/ml 3-(4,5-dimethylthiazol-2-yl)-2,5-diphenyltetrazolium bromide (MTT) solution for 1 hour, and the reduced formazan was dissolved in 150 μl of DMSO, and the cell viability was measured by a microspectrophotometer at a wavelength of 570 nm.
Where [5] appears, read: 24 h, read-out: Cell viability, Post-treatment.
Where [6] appears, read: read-out: Cell viability, Pre-treatment.

On to `NCC(N)Cc1c[nH]c2ccc(O)cc12` (stereo not shown) [Compound 30, 3-(2,3-diaminopropyl)-1H-indol-5-ol], for which, in assay [1], the “MGO concentration on day 7” value was 16.43 µM and the “MGO concentration on day 1” value was found to be 235.58 µM. In addition, the “Fluorescence intensity on day 1 (×10^3)” value in assay [2] is recorded as 156.92 ± 1.22 ×10^3.
In the case of `N=C(N)NN` [AG, aminoguanidine], the viability at 1000 µM in assay [3] (setting [5]) is 52.01 ± 0.24%; in assay [3] (setting [6]), 84.7 ± 1.75%; in assay [4] (setting [5]), 102 ± 11.9%; in assay [4] (setting [6]) it was 111 ± 9.32%.
`N#CC(N)Cc1c[nH]c2ccc(O)cc12` (stereo not shown) [Compound 31, 2-amino-3-(5-hydroxy-1H indol-3-yl)propanenitrile]: in assay [1], the “MGO concentration on day 7” value is 0 µM and the “MGO concentration on day 1” value worked out at 7.30 µM. In assay [2], the “Fluorescence intensity on day 1 (×10^3)” value is 14.58 ± 0.34 ×10^3.
For `N[C@H](CO)Cc1c[nH]c2ccc(O)cc12` [Compound 29, (S)-3-(2-amino-3-hydroxypropyl)-1H-indol-5-ol (L-tryptophanol)], in that order: 0 µM, 18.56 µM and 362.50 ± 17.85 ×10^3.

As a reminder, the viability is a read-out of living cells in per cent, often relative to untreated cells.
